Series [1] concerns Myzus persicae. Nature of the series: Myzus persicae - spray test (Chinese cabbage leaf discs). Format: in vivo. To be noted: Myzus persicae, foliar; application rate 500 g/ha, after 5-6 days; read-out: efficacy. Put shortly: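 Chinese cabbage leaf discs carrying all aphid stages were sprayed with compound dissolved in acetone/dimethylformamide and diluted in water with 1000 ppm alkylaryl polyglycol ether emulsifier. Efficacy was recorded after 5-6 days as % aphids killed (100% = all, 0% = none).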

Series [2] deals with Myzus persicae. Nature of the series: Myzus persicae - oral test. It is filed as in vivo. To be noted: Myzus persicae, po, 120 h; application rate 20 ppm, after 5 days; read-out: efficacy. Put shortly: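 Aphid feeding test: compound dissolved in acetone, diluted with water and mixed with IPL41 insect medium plus sugar, offered through parafilm to a mixed population of green peach aphids. Mortality scored after 5 days as % efficacy (100% = all aphids dead, 0% = none dead).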

Series [3] deals with Myzus persicae. The series can be described thus: Myzus persicae - spray test (MYZUPE), Chinese cabbage leaf discs. It is filed as in vivo. The following applies: foliar, 120 h, 5 dat; for Emax at 20 g/ha / percent efficacy (aphid mortality) at 20 g/ha: 20 g of ai/ha; for Emax at 20 g/ha: read-out: % efficacy; for percent efficacy (aphid mortality) at 100 g/ha: 100 g of ai/ha.

Series [4] concerns Myzus persicae. Nature of the series: Myzus persicae - oral test (MYZUPE O). It is filed as in vivo. The following applies: 120 h, 5 dat, read-out: % efficacy.
Series [5] relates to Myzus persicae. The series can be described thus: Myzus persicae - spray test (MYZUPE S), bell pepper plants. Format: in vivo. The following applies: 144 h, 6 dat, read-out: % efficacy. Here is the method:
Myzus persicae—Spray Test (MYZUPE S)
Solvent: 14 parts by weight of dimethylformamide
Emulsifier: alkylaryl polyglycol ether
To produce a suitable active compound preparation, 1 part by weight of active compound is dissolved with the specified parts by weight of solvent and made up with water containing an emulsifier concentration of 1000 ppm until the desired concentration is attained. To produce further test concentrations, the formulation is diluted with emulsifier-containing water. If the addition of ammonium salts or/and penetrants is required, these are each added in a concentration of 1000 ppm to the formulation solution.
Bell pepper plants (Capsicum annuum) severely infested with the green peach aphid (Myzus persicae) are treated by spraying with the active ingredient formulation in the desired concentration.
After the desired time, the kill in % is determined. 100% means that all the animals have been killed; 0% means that no animals have been killed.

Series [6] has as its system Myzus persicae. The series can be described thus: Myzus persicae - drench test (MYZUPE D), Savoy cabbage in soil. It is filed as in vivo. To be noted: 240 h, 10 dat, read-out: % efficacy.
Series [7] relates to Aphis gossypii. Nature of the series: Aphis gossypii - spray test (APHIGO S), cotton plants. Format: in vivo. To be noted: 144 h, 6 dat, read-out: % efficacy.
Series [8] can be described thus: log P by HPLC on reversed-phase (C18) columns, OECD Guideline 117. To be noted: reversed-phase (C18) HPLC column. It is filed as physicochemical. Put shortly:
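Reversed-phase C18 HPLC per OECD 117, LC-MS with a linear 10% to 95% acetonitrile gradient. Acidic method at pH 2.7 with 0.1% formic acid; neutral method at pH 7.8 with 0.001 M ammonium hydrogencarbonate.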

Where [9] appears, read: acidic range, pH 2.7, 0.1% aqueous formic acid/acetonitrile, read-out: logP[a].
Where [10] appears, read: neutral range, pH 7.8, aqueous ammonium hydrogencarbonate/acetonitrile, read-out: logP[n].

Where two headings read alike, the source gives them in different places.

For the compound `CCN(C(=O)c1cnc(CSC(C)C)n1C)c1cccnc1` [Example I-1-50], the pest or weed control at 500 g/ha in series [1] turned out to be 90%. Also, in series [2], the pest or weed control at 20 ppm was 100%. The Emax at 20 g/ha in series [3] came to 70%. In series [3], this compound gave a percent efficacy (aphid mortality) at 100 g/ha of 90%. For the same compound, the Emax at 4 ppm in series [4] was found to be 100%; in series [7] (4 ppm), 95%. Besides, the Emax at 0.16 ppm came to 100% in series [5] and 98% in series [6]. Moreover, the percent kill (mortality) of aphids at a fixed dose at 0.8 ppm in series [7] (0.8 ppm) is 90%. The chromatographic logP is 1.1 in series [8] (setting [9]) and 1.73 in series [8] (setting [10]).
Turning to `CCN(C(=O)c1cnc(CSCC(C)C)n1C)c1cccnc1` [Example I-1-51], in series [1], the pest or weed control at 500 g/ha stood at 100%. In addition, in series [2], the pest or weed control at 20 ppm is 100%. In series [3], the percent efficacy (aphid mortality) at 20 g/ha is 90%. In series [3], this compound displayed a percent efficacy (aphid mortality) at 100 g/ha of 90%. Further, the Emax at 4 ppm worked out at 100% in series [4] and 99% in series [7] (4 ppm). Also, the Emax at 0.16 ppm is 99% in series [5] and 98% in series [6]. Besides, the Emax at 0.8 ppm in series [7] (0.8 ppm) came to 99%. Also, the values for the chromatographic logP in series [8] (setting [9]) and in series [8] (setting [10]) were 1.32 and 2.05, respectively.
With `CCN(C(=O)c1cnc(CSC(C)(C)C)n1C)c1cccnc1` [Example I-1-52], the pest or weed control at 500 g/ha in series [1] is 90%. Also, in series [2], the pest or weed control at 20 ppm turned out to be 100%. In series [3], the Emax at 20 g/ha stood at 70%. The same compound yielded a percent efficacy (aphid mortality) at 100 g/ha in series [3] of 90%. For the same compound, in series [4], the Emax at 4 ppm is 100%. In addition, the Emax at 0.16 ppm in series [5] worked out at 99%; in series [6], 95%. Moreover, the percent kill (mortality) of aphids at a fixed dose at 4 ppm in series [7] (4 ppm) stood at 90%. Moreover, the chromatographic logP is 1.29 in series [8] (setting [9]) and 1.93 in series [8] (setting [10]).
Regarding `CCN(C(=O)c1cnc(CSCC2CC2)n1C)c1cccnc1` [Example I-1-53], in series [1], the pest or weed control at 500 g/ha is 100%. Moreover, the pest or weed control at 20 ppm in series [2] was found to be 100%. The compound further registered a percent efficacy (aphid mortality) at 20 g/ha in series [3] of 100%. Also, the percent efficacy (aphid mortality) at 100 g/ha in series [3] was 100%. The Emax at 4 ppm came out at 100% in series [4] and 97% in series [7] (4 ppm). The Emax at 0.16 ppm amounted to 99% in series [5] and 90% in series [6]. Moreover, in series [7] (0.8 ppm), the percent kill (mortality) of aphids at a fixed dose at 0.8 ppm was 98%. The figures for the chromatographic logP in series [8] (setting [9]) and in series [8] (setting [10]) were 1.19 and 1.82, respectively.
With `CCN(C(=O)c1cnc(CSCC(C)(C)C)n1C)c1cccnc1` [Example I-1-54], the pest or weed control at 500 g/ha in series [1] came to 90%. In addition, the pest or weed control at 20 ppm in series [2] came to 100%. Moreover, the percent efficacy (aphid mortality) at 20 g/ha in series [3] is 90%. The compound further returned a percent efficacy (aphid mortality) at 100 g/ha in series [3] of 90%. In addition, the Emax at 4 ppm in series [4] came out at 100%; in series [7] (4 ppm), 95%. The Emax at 0.16 ppm in series [5] turned out to be 99%; in series [6], 90%. Moreover, the percent kill (mortality) of aphids at a fixed dose at 0.8 ppm in series [7] (0.8 ppm) is 90%. Also, the chromatographic logP is 1.68 in series [8] (setting [9]) and 2.34 in series [8] (setting [10]).

For the origin of these results see patent US10689365B2, “Substituted 2-alkylimidazolylcarboxamides as pesticides” (Bayer CropScience Aktiengesellschaft, priority 2016, dated 2020).
